Measurements taken from patent US20140349862A1, “METHODS AND COMPOSITIONS FOR THERAPEUTIC DRUG MONITORING AND DOSING BY POINT OF CARE PHARMACOKINETIC PROFILING” (priority 2011, published 2014).
Where two headings read alike, the source gives them in different places.

Key:
[1] = clinical; details: human, in vivo
Source text: To determine whether Abraxane PK has enough variability to benefit from therapeutic drug monitoring, we performed a PK analysis using all published literature on Abraxane PK. […] J Clin Oncol. 23:7785-93.). […] It is expected that Genexol-PM and Nanoxel would have the same PK variations. The wide variability of Abraxane was rather surprising. The role of therapeutic drug monitoring is to reduce this variability. Though PK profiles for Abraxane and Taxol were similar, there are differences. These differences, however, are small and could be masked by the large variation in PK of Abraxane/Taxol.
To determine whether medication used in assisted reproduction, i.e. FSH (follicle stimulating hormone), we performed a PK analysis using published literature on FSH PK. […] To compare it to 5-FU data, we used variability as SD/Mean.

[2] = tested on: patients with metastatic colorectal cancer; details: cited from earlier work
[3] = initial BSA dose, blood plasma concentration measured

AUC variability (range as % of the mean) [1]: 138%
AUC variability as SD/Mean [1]: 34.42%
AUC ([1]; mean): 9050 ng·h/mL
AUC ([1]; range): 3900 to 16400 ng·h/mL
SMILES: O=c1[nH]cc(F)c(=O)[nH]1 [5-FU, 5-fluorouracil]
Median survival ([2]; BSA arm): 16 months
Response rate ([2]; BSA group (dosing by body surface area)): 18.3%
Response rate ([2]; dose-adjusted group (PK-guided dosing)): 33.6%
Patients found to be over-dosed (doses adjusted downward) [2, 3]: Seventeen
Patients found to be under-dosed (doses adjusted upwards) [2, 3]: Fifty eight
Improvement of overall survival at two years ([2]; personalized 5-FU dose management versus BSA arm): 48%
Median survival ([2]; personalized 5-FU dose management): 22 months
Grade III/IV 5-FU related toxicities ([2]; personalized dose adjustment versus BSA dosing): significantly lower
